Consider 7 compounds from paper PMC9225712, “Rational design of biodegradable sulphonamide candidates treating septicaemia by synergistic dual inhibition of COX-2/PGE2 axis and DHPS enzyme” (Journal of Enzyme Inhibition and Medicinal Chemistry, 2022).

Marks after values point to notes of the source that are not given here.

In general, ED50 refers to the midpoint of the dose-response relation. Broadly, the IC50 is the concentration that gives 50% inhibition.

Assay [1] concerns PGE2. In words: Estimation of rat plasma PGE2. The settings on record: po 10 µmol/kg b.wt., 8 h after carrageenan.
For assay [2], the system named is carrageenan-induced paw edoema. In words: Carrageenan-induced paw edoema in mice. A general note: In the carrageenan paw model, swelling and tenderness develop within hours.
The target in assay [3] is T1, ovine COX-1 (Ovis aries, UniProt P05979).
T1 construct: purchased Cayman Chemicals Inc. 560131
T1 sequence (P05979 25-600): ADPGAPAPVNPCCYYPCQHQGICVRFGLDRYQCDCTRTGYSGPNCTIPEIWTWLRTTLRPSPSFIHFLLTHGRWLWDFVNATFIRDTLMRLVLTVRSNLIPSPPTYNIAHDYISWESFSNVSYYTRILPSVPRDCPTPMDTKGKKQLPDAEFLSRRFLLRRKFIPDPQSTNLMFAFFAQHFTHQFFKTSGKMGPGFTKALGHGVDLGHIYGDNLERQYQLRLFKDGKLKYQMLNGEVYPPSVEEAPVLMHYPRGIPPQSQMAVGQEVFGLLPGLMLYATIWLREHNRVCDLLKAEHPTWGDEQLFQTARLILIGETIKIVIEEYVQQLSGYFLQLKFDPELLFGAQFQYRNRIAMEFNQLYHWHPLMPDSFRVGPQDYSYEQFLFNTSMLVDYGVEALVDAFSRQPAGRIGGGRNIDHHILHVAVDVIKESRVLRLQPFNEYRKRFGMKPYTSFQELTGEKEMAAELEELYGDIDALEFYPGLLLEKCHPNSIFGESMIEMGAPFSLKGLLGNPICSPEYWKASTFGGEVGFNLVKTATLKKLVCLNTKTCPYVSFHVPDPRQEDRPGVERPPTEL
In words: In vitro COX-1 enzymatic assay (Cayman kit 560131). The class given is biochemical. As to conditions: Mean ± SEM of triplicate determinations.

Assay [4] relates to Salmonella typhi (RCMB 0100104). In words: Inhibition zone, agar cup diffusion. As to conditions: Salmonella enterica, 24 h, read-out: inhibition zones (IZ) S. typhi. In kind it is cell-based.
In assay [5] the test system is Shigella dysenteriae (RCMB 0100542). In words: Inhibition zone, agar cup diffusion. In kind it is cell-based. The settings on record: RCMB0100542, 24 h, read-out: inhibition zones (IZ) S. dysenteriae.
For assay [6], the system named is Staphylococcus aureus (RCMB 0100183). In words: Inhibition zone, agar cup diffusion. As to conditions: RCMB0100183, 24 h, read-out: inhibition zones (IZ) S. aureus.
The test system of assay [7] is Staphylococcus epidermidis (RCMB 0100183). In words: Inhibition zone, agar cup diffusion. As to conditions: RCMB0100183, 24 h, read-out: inhibition zones (IZ) S. epidermidis.
The test system of assay [8] is Streptococcus mutans (RCMB 0100172). In words: Inhibition zone, agar cup diffusion. As to conditions: RCMB0100172, 24 h, read-out: inhibition zones (IZ) S. mutans.
The test system of assay [9] is Bacillus subtilis (RCMB 0100162). In words: Inhibition zone, agar cup diffusion. The settings on record: RCMB0100162, 24 h, read-out: inhibition zones (IZ) B. subtillis.
The test system of assay [10] is Pseudomonas aeruginosa (RCMB 0100243). In words: Inhibition zone, agar cup diffusion. The settings on record: RCMB0100243, 24 h, read-out: inhibition zones (IZ) P.aeruginosa.
Assay [11] deals with Escherichia coli (RCMB 010052). In words: Inhibition zone, agar cup diffusion. As to conditions: RCMB010052, 24 h, read-out: inhibition zones (IZ) E.coli.
Assay [12] concerns Proteus vulgaris (RCMB 010085). In words: Inhibition zone, agar cup diffusion. The settings on record: RCMB010085, 24 h, read-out: inhibition zones (IZ) P. vulgaris.
Assay [13] deals with T2, human recombinant COX-2 (Homo sapiens, UniProt P35354).
T2 sequence (P35354 18-604): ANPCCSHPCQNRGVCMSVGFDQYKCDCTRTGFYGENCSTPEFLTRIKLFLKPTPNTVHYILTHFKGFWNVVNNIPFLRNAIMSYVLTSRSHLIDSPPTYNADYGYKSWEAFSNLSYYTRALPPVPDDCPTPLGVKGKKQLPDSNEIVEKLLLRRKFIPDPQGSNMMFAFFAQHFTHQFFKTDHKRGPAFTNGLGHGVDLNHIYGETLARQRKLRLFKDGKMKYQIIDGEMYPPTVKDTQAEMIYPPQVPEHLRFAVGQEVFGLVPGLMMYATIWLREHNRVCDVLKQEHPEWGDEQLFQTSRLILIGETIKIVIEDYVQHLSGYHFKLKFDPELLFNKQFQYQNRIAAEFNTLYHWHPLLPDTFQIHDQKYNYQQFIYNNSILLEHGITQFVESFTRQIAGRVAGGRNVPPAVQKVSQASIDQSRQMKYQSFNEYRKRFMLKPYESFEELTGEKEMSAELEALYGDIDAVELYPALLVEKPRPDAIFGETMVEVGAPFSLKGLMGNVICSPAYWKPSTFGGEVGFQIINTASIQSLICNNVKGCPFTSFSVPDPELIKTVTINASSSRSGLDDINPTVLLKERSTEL
In words: In vitro COX-2 enzymatic assay (Cayman kit 560131). The settings on record: for SI COX-1/COX-2: COX-2 selectivity index: COX-1 IC50/COX-2 IC50.

Assay [14] concerns Gram-positive and Gram-negative bacteria. In words: In vitro antibacterial screening, whole panel. The class given is cell-based. The settings on record: whole bacterial panel, result in words.
The subject of assay [15] is S. aureus Smith.
Assay [16] relates to E. coli C11.

Take `Cc1ccc(-c2cc(C(F)(F)F)nn2-c2ccc(S(N)(=O)=O)cc2)cc1` [Celecoxib, reference compound]: in [1] (rat serum), the “% inhibition of PGE2-production” value was 71.18%. In assay [1] (rat, Mean ± SEM, n = 5), the PGE2 serum conc. was 380.636 ± 5.53 pg/mL. In addition, the ED50 in assay [2] (Mus musculus, 8 h, read-out: ED50 (95% confidence level)) came to 13.1 µmol/kg. The “Thickness of edoema 0h” value in [2] (mice, po 10 µmol/kg b.wt., 0 h (before carrageenan), Mean ± SEM, n = 5) worked out at 0.62 ± 0.01 mm. Moreover, the “percentage anti-inflammatory activity (AI%) 2h” value in assay [2] (mice, po 10 µmol/kg b.wt., 2 h) is given as “(6.32%)^d”. Besides, in assay [2] (mice, po 10 µmol/kg b.wt., 2 h after carrageenan, Mean ± SEM, n = 5), the “Thickness of edoema 2h” value is recorded as 0.89 ± 0.01^c mm. For the same compound, the “percentage anti-inflammatory activity (AI%) 4h” value in assay [2] (mice, po 10 µmol/kg b.wt., 4 h) is given as “(45.14%)”. In addition, the “Thickness of edoema 4h” value in assay [2] (mice, po 10 µmol/kg b.wt., 4 h after carrageenan, Mean ± SEM, n = 5) is 0.79 ± 0.01^c mm. Also, in assay [2] (mice, po 10 µmol/kg b.wt., 6 h), the “percentage anti-inflammatory activity (AI%) 6h” value is on record as “(64.39%)”. Besides, in [2] (mice, po 10 µmol/kg b.wt., 6 h after carrageenan, Mean ± SEM, n = 5), the “Thickness of edoema 6h” value is 0.73 ± 0.03^c mm. The “percentage anti-inflammatory activity (AI%) 8h” value in assay [2] (mice, po 10 µmol/kg b.wt., 8 h) is listed as “(70.87%)”; in [2] (mice, po 10 µmol/kg b.wt., 8 h, listed as celecoxib) it was 70.87%. Besides, the “Thickness of edoema 8h” value in assay [2] (mice, po 10 µmol/kg b.wt., 8 h after carrageenan, Mean ± SEM, n = 5) was 0.67 ± 0.02^c mm.
Consider `O=C(NCc1ccccc1)c1cc(/N=N/c2ccc(S(=O)(=O)Nc3nccs3)cc2)ccc1O` [Compound 5f, N-Benzyl-2-hydroxy-5-((4-(N-(thiazol-2-yl)sulfamoyl)phenyl)diazenyl) benzamide], for which the IC50 was 9.7 ± 0.06 µM in assay [3] and 110 ± 3 nM in [13]. Moreover, the zone of inhibition at 1000 µg/mL in [4] amounted to 16 mm; in assay [5], 25 mm; in assay [6], 24 mm; in [7] it was 36 mm; in [8], 27 mm; in assay [9], 17 mm. In addition, the zone of inhibition at 1000 µg/mL in [10] stood at 16 mm; in assay [11] it was 16 mm; in assay [12], 17 mm. Also, the “SI COX-1/COX-2” value in assay [13] is on record as 88.2.
Take `O=C(NCc1ccccc1)c1cc(/N=N/c2ccc(S(=O)(=O)Nc3ncccn3)cc2)ccc1O` [Compound 5g, N-Benzyl-2-hydroxy-5-((4-(N-(pyrimidin-2-yl)sulfamoyl)phenyl)diazenyl) benzamide]: the IC50 in assay [3] was 10.5 ± 0.08 µM; in [13] it was 100 ± 0.3 nM. Moreover, the zone of inhibition at 1000 µg/mL was 13 mm in assay [4]; 26 mm in assay [5]; 26 mm in assay [6]; 32 mm in assay [7]; 30 mm in assay [8]; 20 mm in assay [9]. The zone of inhibition at 1000 µg/mL in [10] worked out at 14 mm; in assay [11], 16 mm; in assay [12], 17 mm. The “SI COX-1/COX-2” value in assay [13] is given as 109.4.
Regarding `NS(=O)(=O)c1ccc(/N=N/c2ccc(O)c(C(=O)N3CCCCC3)c2)cc1` [Compound 5h, 4-((4-Hydroxy-3-(piperidine-1-carbonyl)phenyl)diazenyl) benzenesulfonamide], the figures for the IC50 in assay [3] and in [13] were 8.2 ± 0.12 µM and 140 nM, respectively. Also, the zone of inhibition at 1000 µg/mL in assay [4] was found to be 18 mm; in assay [5] it was 24 mm; in assay [6] it was 22 mm; in assay [7] it was 29 mm; in assay [8], 29 mm; in assay [9], 20 mm. Further, the zone of inhibition at 1000 µg/mL was 16 mm in [10], 14 mm in [11] and 19 mm in assay [12]. Also, the “SI COX-1/COX-2” value in assay [13] amounted to 58.6.
With `O=C(c1cc(/N=N/c2ccc(S(=O)(=O)Nc3nccs3)cc2)ccc1O)N1CCCCC1` [Compound 5i, 4-((4-Hydroxy-3-(piperidine-1-carbonyl)phenyl)diazenyl)-N-(thiazol-2-yl) benzenesulfonamide], the IC50 in [3] came out at 11.2 ± 0.11 µM; in assay [13] it was 80 ± 0.8 nM. In addition, the zone of inhibition at 1000 µg/mL in [4] is 15 mm; in assay [5], 22 mm; in assay [6], 25 mm; in assay [7], 30 mm; in [8], 31 mm; in assay [9], 19 mm. Besides, the zone of inhibition at 1000 µg/mL in assay [10] stood at 18 mm; in assay [11], 16 mm; in assay [12] it was 18 mm. For the same compound, the “in vitro antibacterial activity” value in assay [14] is on record as “weak in vitro antibacterial activity”. For the same compound, the “SI COX-1/COX-2” value in [13] is 136.6.
In the case of `NS(=O)(=O)c1ccc(/N=N/c2ccc(O)c(C(=O)N3CCOCC3)c2)cc1` [Compound 5l, 4-((4-Hydroxy-3-(morpholine-4-carbonyl)phenyl)diazenyl) benzenesulfonamide], the IC50 in [3] came to 10.2 ± 0.08 µM; in assay [13], 80 ± 1 nM. In addition, the zone of inhibition at 1000 µg/mL in assay [4] stood at 17 mm; in assay [5] it was 26 mm; in assay [6], 18 mm; in assay [7], 32 mm; in assay [8], 26 mm; in assay [9], 20 mm. Also, the zone of inhibition at 1000 µg/mL was 14 mm in [10], 14 mm in assay [11] and 19 mm in [12]. Also, the “SI COX-1/COX-2” value in assay [13] was 134.2.
In the case of `O=C(O)c1cc(/N=N/c2ccc(S(=O)(=O)Nc3ccccn3)cc2)ccc1O` [Sulfasalazine, reference compound], the ED50 in [15] (Staphylococcus aureus, in Mus musculus, read-out: ED50 against S. aureus infection) came out at 314 µmol/kg; in assay [16] (Escherichia coli, C11, in Mus musculus, read-out: ED50 against E.coli infection) it was 419 µmol/kg. Besides, the “ED50, protective effect against bacteremic infection, Staphylococcus aureus” value in assay [15] (mice, challenge dose 9.5x10^6 CFU/mouse ip, intragastric once a day for 7 days, survival) amounted to 313.7 µmol/kg/day. Besides, the “ED50, protective effect against bacteremic infection, Escherichia coli” value in assay [16] (mice, challenge dose 7.1x10^3 CFU/mouse ip, intragastric once a day for 7 days, survival) worked out at 419.2 µmol/kg/day.
